Measured values reported in US11000033B2, “Ketone or oxime compound, and herbicide” (NISSAN CHEMICAL CORPORATION, priority 2014, dated 2021).

How the values were obtained:
Format in all cases: in vivo
transplanted rice plant = assay: Test Example 1: effect on crop, application before weed generation in submerged conditions (symbol a); details: application herbicide amount 320 g/ha
How it was run: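 Alluvial soil pots flooded to 4 cm water, sown with Echinochloa oryzacola, Scirpus juncoides and Monochoria vaginalis, then transplanted with 2.5 leaf stage rice seedlings; pre-emergence application. Greenhouse 25° C. to 30° C.; scored 0–5 by herbicidal ratio 3 weeks after application.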

Scirpus juncoides = assay: Test Example 2: herbicidal activity, application during weed generation in submerged conditions (symbol B); details: Table 23; application herbicide amount 320 g/ha; grade 0-5 by criteria of Test Example 1
How it was run: (§1)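 Steps: fill pots with alluvial soil; add water to 4 cm depth; co-sow the three weeds; grow at 25° C. to 30° C. under glass; at 1–2 leaves, dose the floodwater with diluted emulsion; rate damage visually after 3 weeks.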

Monochoria vaginalis = assay: Test Example 2: herbicidal activity, application during weed generation in submerged conditions (symbol C); details: Table 23; application herbicide amount 320 g/ha; grade 0-5 by criteria of Test Example 1
How it was run: as §1

[1] = tested on: Echinochloa crus-galli var. crus-galli; assay: Test Example 3: herbicidal effect by foliage application, Wagner pot (symbol H); details: application herbicide amount 320 g/ha
How it was run: (§2)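 Post-emergence, paddy-type test: seedlings 14 d old in shallow-flooded (0.1–0.5 cm) alluvial soil, 25–30 °C greenhouse. Emulsion diluted to target rate, sprayed on leaves. Read-out: visual effect on each species at 3 weeks, per set criteria.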

Leptochloa chinensis = assay: Test Example 3: herbicidal effect by foliage application, Wagner pot (symbol D); details: application herbicide amount 320 g/ha
How it was run: as §2

Cyperus difformis = assay: Test Example 3: herbicidal effect by foliage application, Wagner pot (symbol E); details: application herbicide amount 320 g/ha
How it was run: as §2

[2] = tested on: directly sowed rice plant; assay: Test Example 3: effect on crop by foliage application, Wagner pot (symbol b); details: application herbicide amount 320 g/ha
How it was run: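 Steps: fill a 1/10000-are Wagner pot with alluvial soil; add water and mix to submerge at 0.1–0.5 cm depth; sow rice plus Echinochloa crus-galli var. crus-galli, Leptochloa chinensis and Cyperus difformis; grow in a 25–30 °C greenhouse.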

[3] = tested on: Echinochloa crus-galli var. crus-galli; assay: Test Example 4: herbicidal effect by soil treatment (symbol H); details: application herbicide amount 320 g/ha
How it was run: (§3)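 Seeds were sown in sterilized diluvial soil, covered with about 1.5 cm of soil, and the soil surface was sprayed with a water-diluted emulsion of the compound at a predetermined rate. Plants grew in a greenhouse at 25° C. to 30° C.; effects were scored visually 3 weeks after application.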

Chenopodium album [4] = assay: Test Example 4: herbicidal effect by soil treatment (symbol O); details: application herbicide amount 320 g/ha
How it was run: as §3

beet = assay: Test Example 4: effect on crop by soil treatment (symbol f); details: application herbicide amount 320 g/ha
How it was run: (§4)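 Grown at 25° C. to 30° C. in a greenhouse, the crops came from seed sown spot-wise in sterilized diluvial soil under roughly 1.5 cm of covering soil.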

rapeseed = assay: Test Example 4: effect on crop by soil treatment (symbol g); details: application herbicide amount 320 g/ha
How it was run: as §4

Apera spica-venti = assay: Test Example 5: herbicidal effect by foliage application, plastic box (symbol L); details: 320 g/ha, 3 weeks after application
How it was run: (§5)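 Sowing in sterilized diluvial soil, 14 days' greenhouse growth at 25° C. to 30° C., then uniform small-sprayer foliar application of aqueous emulsion dilution; plants scored three weeks afterwards.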

Abutilon theophrasti = assay: Test Example 5: herbicidal effect by foliage application, plastic box (symbol M); details: 320 g/ha, 3 weeks after application
How it was run: as §5

Chenopodium album [5] = assay: Test Example 5: herbicidal effect by foliage application, plastic box (symbol O); details: 320 g/ha, 3 weeks after application
How it was run: as §5

Stellaria media = assay: Test Example 5: herbicidal effect by foliage application, plastic box (symbol P); details: 320 g/ha, 3 weeks after application
How it was run: as §5

| Structure (SMILES) | Effect grade on crop, a: transplanted rice plant (transplanted rice plant) | Herbicidal effect grade, B: Scirpus juncoides (Scirpus juncoides) | Herbicidal effect grade, C: Monochoria vaginalis (Monochoria vaginalis) | herbicidal effect on H (Echinochloa crus-galli var. crus-galli), grade 0-5 [1] | herbicidal effect on D (Leptochloa chinensis), grade 0-5 (Leptochloa chinensis) | herbicidal effect on E, grade 0-5 (Cyperus difformis) | effect on crop b (directly sowed rice plant), grade 0-5 [2] | H: Echinochloa crus-galli var. crus-galli, herbicidal effect grade [3] | O: Chenopodium album, herbicidal effect grade (Chenopodium album [4]) | f: beet, effect on crop grade (beet) | g: rapeseed, effect on crop grade (rapeseed) | L: Apera spica-venti, herbicidal effect (criteria of Test Example 1) (Apera spica-venti) | M: Abutilon theophrasti, herbicidal effect (criteria of Test Example 1) (Abutilon theophrasti) | O: Chenopodium album, herbicidal effect (criteria of Test Example 1) (Chenopodium album [5]) | P: Stellaria media, herbicidal effect (criteria of Test Example 1) (Stellaria media) | Herbicidal effect grade, H: Echinochloa crus-galli var. crus-galli [3] | Herbicidal effect grade, O: Chenopodium album (Chenopodium album [4]) | Effect on crop grade, f: beet (beet) | Effect on crop grade, g: rapeseed (rapeseed) |
| --- | --- | --- | --- | --- | --- | --- | --- | --- | --- | --- | --- | --- | --- | --- | --- | --- | --- | --- | --- |
| CON=C(C)CC1CC(O)=C(c2c(C)cc(-c3ccc(Cl)cc3F)cc2C)C1=O (stereo not drawn) [6-084] | 5 (Herbicidal ratio of 90% or more (almost completely withered)) | 3 (Herbicidal ratio of 40% or higher and lower than 70%) | 0 (Herbicidal ratio of 5% or lower (almost no effect)) | 5 (Herbicidal ratio of 90% or more (almost completely withered)) | 5 (Herbicidal ratio of 90% or more (almost completely withered)) | 5 (Herbicidal ratio of 90% or more (almost completely withered)) | 5 (Herbicidal ratio of 90% or more (almost completely withered)) | 5 (Herbicidal ratio of 90% or more (almost completely withered)) | 3 (Herbicidal ratio of 40% or higher and lower than 70%) | 0 (Herbicidal ratio of 5% or lower (almost no effect)) | 1 (Herbicidal ratio of 5% or higher and lower than 20%) | 5 (Herbicidal ratio of 90% or more (almost completely withered)) | 3 (Herbicidal ratio of 40% or higher and lower than 70%) | 4 (Herbicidal ratio of 70% or higher and lower than 90%) | 3 (Herbicidal ratio of 40% or higher and lower than 70%) | – | – | – | – |
| CON=C(C)CC1CC(O)=C(c2c(C)cc(-c3ccc(F)c(Cl)c3)cc2C)C1=O (stereo not drawn) [6-085] | 5 (Herbicidal ratio of 90% or more (almost completely withered)) | 4 (Herbicidal ratio of 70% or higher and lower than 90%) | 1 (Herbicidal ratio of 5% or higher and lower than 20%) | 5 (Herbicidal ratio of 90% or more (almost completely withered)) | 5 (Herbicidal ratio of 90% or more (almost completely withered)) | 5 (Herbicidal ratio of 90% or more (almost completely withered)) | 5 (Herbicidal ratio of 90% or more (almost completely withered)) | – | – | – | – | 5 (Herbicidal ratio of 90% or more (almost completely withered)) | 4 (Herbicidal ratio of 70% or higher and lower than 90%) | 5 (Herbicidal ratio of 90% or more (almost completely withered)) | 3 (Herbicidal ratio of 40% or higher and lower than 70%) | 5 (Herbicidal ratio of 90% or more (almost completely withered)) | 5 (Herbicidal ratio of 90% or more (almost completely withered)) | 3 (Herbicidal ratio of 40% or higher and lower than 70%) | 4 (Herbicidal ratio of 70% or higher and lower than 90%) |
| CON=C(C)CC1CC(OC(=O)N2CCOCC2)=C(c2c(C)cc(-c3ccc(Cl)cc3F)cc2C)C1=O (stereo not drawn) [6-089] | 5 (Herbicidal ratio of 90% or more (almost completely withered)) | 2 (Herbicidal ratio of 20% or higher and lower than 40%) | 3 (Herbicidal ratio of 40% or higher and lower than 70%) | 5 (Herbicidal ratio of 90% or more (almost completely withered)) | 5 (Herbicidal ratio of 90% or more (almost completely withered)) | 4 (Herbicidal ratio of 70% or higher and lower than 90%) | 5 (Herbicidal ratio of 90% or more (almost completely withered)) | – | – | – | – | 5 (Herbicidal ratio of 90% or more (almost completely withered)) | – | 4 (Herbicidal ratio of 70% or higher and lower than 90%) | 4 (Herbicidal ratio of 70% or higher and lower than 90%) | 1 (Herbicidal ratio of 5% or higher and lower than 20%) | 0 (Herbicidal ratio of 5% or lower (almost no effect)) | 0 (Herbicidal ratio of 5% or lower (almost no effect)) | 0 (Herbicidal ratio of 5% or lower (almost no effect)) |
| CON=C(C)CC1CC(O)=C(c2c(F)cc(Br)cc2OC)C1=O (stereo not drawn) [6-096] | 5 (Herbicidal ratio of 90% or more (almost completely withered)) | 0 (Herbicidal ratio of 5% or lower (almost no effect)) | 0 (Herbicidal ratio of 5% or lower (almost no effect)) | 5 (Herbicidal ratio of 90% or more (almost completely withered)) | 4 (Herbicidal ratio of 70% or higher and lower than 90%) | 5 (Herbicidal ratio of 90% or more (almost completely withered)) | 5 (Herbicidal ratio of 90% or more (almost completely withered)) | – | – | – | – | 3 (Herbicidal ratio of 40% or higher and lower than 70%) | – | 1 (Herbicidal ratio of 5% or higher and lower than 20%) | 1 (Herbicidal ratio of 5% or higher and lower than 20%) | 4 (Herbicidal ratio of 70% or higher and lower than 90%) | 0 (Herbicidal ratio of 5% or lower (almost no effect)) | 0 (Herbicidal ratio of 5% or lower (almost no effect)) | 0 (Herbicidal ratio of 5% or lower (almost no effect)) |
| CON=C(C)CC1CC(OC(=O)N2CCCCC2)=C(c2c(C)cc(C)cc2OC)C1=O (stereo not drawn) [6-111] | 5 (Herbicidal ratio of 90% or more (almost completely withered)) | 3 (Herbicidal ratio of 40% or higher and lower than 70%) | 4 (Herbicidal ratio of 70% or higher and lower than 90%) | 5 (Herbicidal ratio of 90% or more (almost completely withered)) | 5 (Herbicidal ratio of 90% or more (almost completely withered)) | – | 5 (Herbicidal ratio of 90% or more (almost completely withered)) | – | – | – | – | 5 (Herbicidal ratio of 90% or more (almost completely withered)) | 2 (Herbicidal ratio of 20% or higher and lower than 40%) | 0 (Herbicidal ratio of 5% or lower (almost no effect)) | 1 (Herbicidal ratio of 5% or higher and lower than 20%) | 4 (Herbicidal ratio of 70% or higher and lower than 90%) | 0 (Herbicidal ratio of 5% or lower (almost no effect)) | 0 (Herbicidal ratio of 5% or lower (almost no effect)) | 0 (Herbicidal ratio of 5% or lower (almost no effect)) |
